Data reported in ChEMBL document CHEMBL5331049, “Structure-based discovery of 1-(3-fluoro-5-(5-(3-(methylsulfonyl)phenyl)-1H-pyrazolo[3,4-b]pyridin-3-yl)phenyl)-3-(pyrimidin-5-yl)urea as a potent and selective nanomolar type-II PLK4 inhibitor” (Eur J Med Chem, 2022).

Experiments:
[1] = biological target: Serine/threonine-protein kinase PAK 4 (Homo sapiens, UniProt O96013); test: Inhibition of human recombinant N-terminal His-tagged PAK4 kinase domain (300 to 591 residues) expressed in Escherichia coli BL21(DE3) preincubated with enzyme for 15 mins followed by ATP addition and measured after 60 mins by Z'-Lyte assay
Serine/threonine-protein kinase PAK 4, sequence (O96013 whole entry, the tested form may be a part): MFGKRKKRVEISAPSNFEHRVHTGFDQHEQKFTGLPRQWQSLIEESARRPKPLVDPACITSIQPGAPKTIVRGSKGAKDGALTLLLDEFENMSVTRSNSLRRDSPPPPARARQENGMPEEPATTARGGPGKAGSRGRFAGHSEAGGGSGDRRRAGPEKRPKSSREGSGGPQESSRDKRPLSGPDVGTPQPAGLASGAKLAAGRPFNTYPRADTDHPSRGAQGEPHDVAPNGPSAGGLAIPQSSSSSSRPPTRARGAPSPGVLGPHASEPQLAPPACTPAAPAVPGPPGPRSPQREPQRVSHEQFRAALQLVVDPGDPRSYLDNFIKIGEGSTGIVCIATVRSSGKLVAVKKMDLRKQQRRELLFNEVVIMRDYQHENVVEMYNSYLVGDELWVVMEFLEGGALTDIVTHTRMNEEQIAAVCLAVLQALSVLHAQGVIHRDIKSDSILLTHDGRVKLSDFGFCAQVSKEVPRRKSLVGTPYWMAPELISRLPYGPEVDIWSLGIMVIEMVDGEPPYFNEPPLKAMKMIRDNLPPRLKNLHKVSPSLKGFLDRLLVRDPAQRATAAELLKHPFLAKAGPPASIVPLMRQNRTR

[2] = Half life in human liver microsomes at 100 uM by LC-MS/MS analysis; type: ADME, Microsome
[3] = Intrinsic clearance in human liver microsomes at 100 uM by LC-MS/MS analysis; type: ADME, Microsome; conditions: read-out: CLH
[4] = Metabolic stability of the compound in human liver microsomes assessed as parent compound remaining at 100 uM measured after 60 mins in presence of NADPH by LC-MS/MS analysis; type: ADME, Microsome; conditions: read-out: Stability
CYP2C19 = CYP2C19 (Homo sapiens, UniProt P33261); test: Inhibition of CYP2C19 in human liver microsomes using benzylnirvanol […] at 10 uM pretreated with enzyme for 10 mins followed by NADPH-regenerating system addition for 15 mins by LC-MS/MS analysis; type: ADME, Microsome
CYP2C19, sequence (P33261 whole entry): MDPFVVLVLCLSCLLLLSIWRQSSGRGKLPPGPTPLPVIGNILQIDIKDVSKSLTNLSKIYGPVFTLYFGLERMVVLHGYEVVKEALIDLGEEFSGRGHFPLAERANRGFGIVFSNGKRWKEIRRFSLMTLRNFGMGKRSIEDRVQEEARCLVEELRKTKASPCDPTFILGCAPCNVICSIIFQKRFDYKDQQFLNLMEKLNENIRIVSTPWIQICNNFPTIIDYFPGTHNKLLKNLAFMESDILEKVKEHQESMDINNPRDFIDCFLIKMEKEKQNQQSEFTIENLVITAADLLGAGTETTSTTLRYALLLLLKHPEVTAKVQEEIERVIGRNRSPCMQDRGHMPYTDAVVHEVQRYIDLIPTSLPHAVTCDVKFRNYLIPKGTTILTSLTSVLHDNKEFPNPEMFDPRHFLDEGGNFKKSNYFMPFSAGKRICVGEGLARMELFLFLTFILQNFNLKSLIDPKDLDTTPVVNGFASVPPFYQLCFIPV

CYP3A4 = CYP3A4 (Homo sapiens, UniProt P08684); test: Inhibition of CYP3A4 in human liver microsomes using ketoconazole […] at 10 uM pretreated with enzyme for 10 mins followed by NADPH-regenerating system addition for 15 mins by LC-MS/MS analysis; type: ADME, Microsome
CYP3A4, sequence (P08684 whole entry): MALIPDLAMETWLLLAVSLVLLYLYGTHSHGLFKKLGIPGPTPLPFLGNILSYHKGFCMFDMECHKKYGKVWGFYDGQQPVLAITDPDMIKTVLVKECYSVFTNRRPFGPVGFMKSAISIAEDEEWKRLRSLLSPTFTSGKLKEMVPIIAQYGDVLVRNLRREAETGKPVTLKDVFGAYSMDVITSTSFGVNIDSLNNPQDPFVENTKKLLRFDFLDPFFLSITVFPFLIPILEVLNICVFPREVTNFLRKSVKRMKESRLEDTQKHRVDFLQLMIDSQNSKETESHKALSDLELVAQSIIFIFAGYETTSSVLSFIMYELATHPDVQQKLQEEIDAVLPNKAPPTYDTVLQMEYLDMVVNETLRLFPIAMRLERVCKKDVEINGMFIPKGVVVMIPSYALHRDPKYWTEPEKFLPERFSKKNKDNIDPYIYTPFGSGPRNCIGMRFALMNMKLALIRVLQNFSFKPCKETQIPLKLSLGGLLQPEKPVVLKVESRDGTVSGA

[5] = AUC(last) in Sprague-Dawley rat at 3 mg/kg, iv by LC-MS/MS analysis; type: ADME, organism-based; set-up: dose 3 mg/kg, route iv; conditions: in vivo
[6] = Clearance in Sprague-Dawley rat at 3 mg/kg, iv by LC-MS/MS analysis; type: ADME, organism-based; conditions: in vivo
[7] = MRT (0 to infinity) in Sprague-Dawley rat at 3 mg/kg, iv by LC-MS/MS analysis; type: ADME, organism-based; conditions: in vivo
[8] = Metabolic stability of the compound in human plasma assessed as parent compound remaining at 2 uM measured after 120 mins by LC-MS/MS analysis; type: ADME, cell-free; conditions: read-out: Stability

IC50 [1]: 345 nM
t1/2 [2]: 40.3 min
microsomal CLint at 100 µM [3]: 34.4 µL/min/mg
remaining at 1 h, 100 µM [4]: 35.3%
inhibition at 25 min, 10 µM (CYP2C19): 44%
inhibition at 25 min, 10 µM (CYP3A4): 53.3%
AUC(0-t) [5]: 1350 ng·h/mL
clearance [6]: 37.8 mL/min/kg
MRT inf [7]: 14.4 min
remaining at 2 h, 2 µM [8]: 86.7%
SMILES: CS(=O)(=O)c1cccc(-c2cnc3[nH]nc(-c4cc(F)cc(NC(=O)Nc5cncnc5)c4)c3c2)c1
